From PubChem BioAssay (NCI)
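How tested: cells in 96-well plates exposed to compound for 48 hours at five concentrations. TGI is the concentration that stops growth completely.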 Where a SMILES comes first, the peptide text is derived from it. The star is where a group is joined. Cbz = O=C(OCc1ccccc1)*

tested on: NCI-H23 lung; assay: inhibition of tumour cell growth, NCI panel, 48 h

| SMILES | TGI [µM] |
| --- | --- |
| COc1cc(NS(C)(=O)=O)ccc1Nc1c2ccccc2nc2c1[nH]c1ccc(NC3OC(CO)C(O)C(O)C3O)cc12 (stereo not drawn) | 0.27 |
| O=C(O)CCC(NC(=O)OCc1ccccc1)C(=O)NC(Cc1cnc[nH]1)C(=O)O (stereo not drawn) (Cbz-Glu-His-OH; configuration not given here) | > 100 |
| O=[N+]([O-])/C(C(Cl)=C(Cl)Cl)=C(/Cl)Sc1ccccc1 | 4.1 |
| Clc1ccc(C2C3COc4ccccc4C3=NN2c2ccccc2)cc1 (stereo not drawn) | > 100 |
| COC(=O)C1=C(O)C(C(=O)OC)[C@]2(O)[C@H](C(=O)OC)[C@H]1C[C@@H](c1ccc(C(F)(F)F)cc1)[C@H]2C(=O)OC (stereo partly drawn) | 21.7 |
| CCOC(=O)C12OC(CCC1=O)C(C(=O)OC)=C2C(=O)OC (stereo not drawn) | > 10 |
| CCOC(=O)NC(Nc1ccc(S(=O)(=O)Nc2nc(C)cc(C)n2)cc1)(C(=O)OCC)C(F)(F)F (stereo not drawn) | > 100 |
| COc1ccc(C(OCC2OC(n3cc(C)c(=O)[nH]c3=O)CC2n2cc(Cn3cc(Cl)c(=O)[nH]c3=O)nn2)(c2ccccc2)c2ccccc2)cc1 (stereo not drawn) | > 100 |
| CC(=O)c1[nH]c(NCc2ccccc2)c(C(=S)Nc2ccccc2)c1N | > 100 |
| CN1CCN(C(=S)N2CCN(C)CC2)CC1 | > 100 |
| O=Cc1[nH]c(=O)[nH]c(=O)c1C(=O)O | > 100 |
| Nc1nc(SC/C=C/c2ccccc2)c2[nH]cnc2n1 | > 100 |
| CSc1nc(Nc2cccc(C(F)(F)F)c2)c2c(N)nn(C)c2n1 | > 100 |
| CCCCNC(=S)Nc1nc(C(=O)NNC(=S)Nc2ccccc2)cs1 | > 100 |
| CC1CCC(=O)C(C(=O)CC2CC(=O)N(C)C(=O)C2)C1 (stereo not drawn) | > 100 |
| COc1cc2c(C)cc(O)cc2c2cc(O)c(C)cc12 | 21.5 |
| COc1ccc(-[n+]2nc(S(=O)(=O)O)c(/C=C/c3ccc(N(C)C)cc3)cc2C#N)cc1 | > 100 |
| C/C=C(/C)C(=O)O[C@@H]1CCN2CC[C@H](COC(=O)/C(=C/C)CO)C12 (stereo partly drawn) | > 100 |

tested on: OVCAR-5 ovarian; assay: inhibition of tumour cell growth, NCI panel, 48 h

| SMILES | TGI [µM] |
| --- | --- |
| COc1cc(NS(C)(=O)=O)ccc1Nc1c2ccccc2nc2c1[nH]c1ccc(NC3OC(CO)C(O)C(O)C3O)cc12 (stereo not drawn) | 2.09 |
| O=C(O)CCC(NC(=O)OCc1ccccc1)C(=O)NC(Cc1cnc[nH]1)C(=O)O (stereo not drawn) (Cbz-Glu-His-OH; configuration not given here) | > 100 |
| O=[N+]([O-])/C(C(Cl)=C(Cl)Cl)=C(/Cl)Sc1ccccc1 | 3.9 |
| Clc1ccc(C2C3COc4ccccc4C3=NN2c2ccccc2)cc1 (stereo not drawn) | > 100 |
| COC(=O)C1=C(O)C(C(=O)OC)[C@]2(O)[C@H](C(=O)OC)[C@H]1C[C@@H](c1ccc(C(F)(F)F)cc1)[C@H]2C(=O)OC (stereo partly drawn) | 15 |
| CCOC(=O)C12OC(CCC1=O)C(C(=O)OC)=C2C(=O)OC (stereo not drawn) | > 10 |
| CCOC(=O)NC(Nc1ccc(S(=O)(=O)Nc2nc(C)cc(C)n2)cc1)(C(=O)OCC)C(F)(F)F (stereo not drawn) | > 100 |
| COc1ccc(C(OCC2OC(n3cc(C)c(=O)[nH]c3=O)CC2n2cc(Cn3cc(Cl)c(=O)[nH]c3=O)nn2)(c2ccccc2)c2ccccc2)cc1 (stereo not drawn) | > 100 |
| CC(=O)c1[nH]c(NCc2ccccc2)c(C(=S)Nc2ccccc2)c1N | 55.1 |
| CN1CCN(C(=S)N2CCN(C)CC2)CC1 | > 100 |
| O=Cc1[nH]c(=O)[nH]c(=O)c1C(=O)O | > 100 |
| Nc1nc(SC/C=C/c2ccccc2)c2[nH]cnc2n1 | > 100 |
| CSc1nc(Nc2cccc(C(F)(F)F)c2)c2c(N)nn(C)c2n1 | > 100 |
| CCCCNC(=S)Nc1nc(C(=O)NNC(=S)Nc2ccccc2)cs1 | > 100 |
| CC1CCC(=O)C(C(=O)CC2CC(=O)N(C)C(=O)C2)C1 (stereo not drawn) | > 100 |
| COc1cc2c(C)cc(O)cc2c2cc(O)c(C)cc12 | 24.3 |
| COc1ccc(-[n+]2nc(S(=O)(=O)O)c(/C=C/c3ccc(N(C)C)cc3)cc2C#N)cc1 | > 100 |
| C/C=C(/C)C(=O)O[C@@H]1CCN2CC[C@H](COC(=O)/C(=C/C)CO)C12 (stereo partly drawn) | > 100 |

tested on: SW-620 colon; assay: inhibition of tumour cell growth, NCI panel, 48 h

| SMILES | TGI [µM] |
| --- | --- |
| COc1cc(NS(C)(=O)=O)ccc1Nc1c2ccccc2nc2c1[nH]c1ccc(NC3OC(CO)C(O)C(O)C3O)cc12 (stereo not drawn) | 2.08 |
| O=C(O)CCC(NC(=O)OCc1ccccc1)C(=O)NC(Cc1cnc[nH]1)C(=O)O (stereo not drawn) (Cbz-Glu-His-OH; configuration not given here) | > 100 |
| O=[N+]([O-])/C(C(Cl)=C(Cl)Cl)=C(/Cl)Sc1ccccc1 | 1.07 |
| Clc1ccc(C2C3COc4ccccc4C3=NN2c2ccccc2)cc1 (stereo not drawn) | > 32.7 |
| COC(=O)C1=C(O)C(C(=O)OC)[C@]2(O)[C@H](C(=O)OC)[C@H]1C[C@@H](c1ccc(C(F)(F)F)cc1)[C@H]2C(=O)OC (stereo partly drawn) | > 100 |
| CCOC(=O)C12OC(CCC1=O)C(C(=O)OC)=C2C(=O)OC (stereo not drawn) | > 10 |
| CCOC(=O)NC(Nc1ccc(S(=O)(=O)Nc2nc(C)cc(C)n2)cc1)(C(=O)OCC)C(F)(F)F (stereo not drawn) | > 100 |
| COc1ccc(C(OCC2OC(n3cc(C)c(=O)[nH]c3=O)CC2n2cc(Cn3cc(Cl)c(=O)[nH]c3=O)nn2)(c2ccccc2)c2ccccc2)cc1 (stereo not drawn) | > 100 |
| CC(=O)c1[nH]c(NCc2ccccc2)c(C(=S)Nc2ccccc2)c1N | > 100 |
| CN1CCN(C(=S)N2CCN(C)CC2)CC1 | > 100 |
| O=Cc1[nH]c(=O)[nH]c(=O)c1C(=O)O | > 100 |
| Nc1nc(SC/C=C/c2ccccc2)c2[nH]cnc2n1 | > 100 |
| CSc1nc(Nc2cccc(C(F)(F)F)c2)c2c(N)nn(C)c2n1 | > 100 |
| CCCCNC(=S)Nc1nc(C(=O)NNC(=S)Nc2ccccc2)cs1 | > 100 |
| CC1CCC(=O)C(C(=O)CC2CC(=O)N(C)C(=O)C2)C1 (stereo not drawn) | > 100 |
| COc1cc2c(C)cc(O)cc2c2cc(O)c(C)cc12 | 19.8 |
| COc1ccc(-[n+]2nc(S(=O)(=O)O)c(/C=C/c3ccc(N(C)C)cc3)cc2C#N)cc1 | > 100 |
| C/C=C(/C)C(=O)O[C@@H]1CCN2CC[C@H](COC(=O)/C(=C/C)CO)C12 (stereo partly drawn) | > 100 |

tested on: T-47D breast; assay: inhibition of tumour cell growth, NCI panel, 48 h

| SMILES | TGI [µM] |
| --- | --- |
| COc1cc(NS(C)(=O)=O)ccc1Nc1c2ccccc2nc2c1[nH]c1ccc(NC3OC(CO)C(O)C(O)C3O)cc12 (stereo not drawn) | 15.7 |
| O=C(O)CCC(NC(=O)OCc1ccccc1)C(=O)NC(Cc1cnc[nH]1)C(=O)O (stereo not drawn) (Cbz-Glu-His-OH; configuration not given here) | > 100 |
| O=[N+]([O-])/C(C(Cl)=C(Cl)Cl)=C(/Cl)Sc1ccccc1 | 7.47 |
| Clc1ccc(C2C3COc4ccccc4C3=NN2c2ccccc2)cc1 (stereo not drawn) | > 100 |
| COC(=O)C1=C(O)C(C(=O)OC)[C@]2(O)[C@H](C(=O)OC)[C@H]1C[C@@H](c1ccc(C(F)(F)F)cc1)[C@H]2C(=O)OC (stereo partly drawn) | > 100 |
| CCOC(=O)C12OC(CCC1=O)C(C(=O)OC)=C2C(=O)OC (stereo not drawn) | > 10 |
| CCOC(=O)NC(Nc1ccc(S(=O)(=O)Nc2nc(C)cc(C)n2)cc1)(C(=O)OCC)C(F)(F)F (stereo not drawn) | > 100 |
| COc1ccc(C(OCC2OC(n3cc(C)c(=O)[nH]c3=O)CC2n2cc(Cn3cc(Cl)c(=O)[nH]c3=O)nn2)(c2ccccc2)c2ccccc2)cc1 (stereo not drawn) | > 100 |
| CC(=O)c1[nH]c(NCc2ccccc2)c(C(=S)Nc2ccccc2)c1N | 63.3 |
